Results: US8741932B2, “Imidazopyridine derivatives” (Piramal Enterprises Limited, priority 2009, dated 2014)

Experiments:
CAPAN1 = experiment: Cytotoxicity assay (propidium iodide), CAPAN1; assay type: cell-based; details: Homo sapiens, CAPAN-1; CAPAN1 (C5b, pancreatic); 48 hours
Method: (§1) Cells from cell lines as mentioned in the table given below were seeded at a density of 3000 cells/well in a white opaque 96-well plate. Following incubation at 37° C./5% CO2 for a period of 18-24 hours, the cells were treated with various concentrations (stock solution was prepared in DMSO and subsequent dilutions were made in media as per ATCC guidelines) of the representative compounds of present invention (refer table 3) for a period of 48 hours. At the end of treatment, the spent culture medium was discarded, the cells were washed with 1×PBS and 200 μl of 7 μg/ml propidium iodide was added to each well. The plates were frozen at −70° C. for at least 24 hours. For analysis, the plates were brought to RT, allowed to thaw and were read in PolarStar fluorimeter with the fluorescence setting. The percentage of viable cells in the non treated set of wells was considered to be 100 and the percentage viability following treatment was calculated accordingly. IC50 values were calculated from graphs plotted using these percentages.

STAT3 = STAT3 bioassay (Hela Stat3-luc, luciferase); assay type: cell-based; details: Homo sapiens, Oncostatin M induction
Outline: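 Hela Stat3-luc cells (20,000/well, 24 h) pretreated with compound 1 h, then induced with 100 ng/ml final Oncostatin M for 7-8 h at 37 °C. Luciferase luminescence after lysis; percent inhibition versus induction control, IC50 from these percentages.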

FaDu = experiment: Cytotoxicity assay (propidium iodide), FaDu; assay type: cell-based; details: Homo sapiens; FaDu (C11a, hypopharyngeal); 48 hours
Method: as §1

mTOR = biological target: T1, mTOR (Homo sapiens, UniProt P42345); experiment: mTOR activity assay (cell ELISA, Phospho-AKT Ser 473, A2780 cells); assay type: cell-based; details: for inhibition at 1 µM: read-out: % Inhibition of mTOR activity at 1 μM
T1 construct: endogenous in cells; host or cells: A2780 ovarian cell line (ATCC)
Outline: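 A2780 cells adhered 18-24 h, serum-starved 24 h, then stimulated with 20% FCS for 30 min alongside compound-treated sets. Fixed cells probed for phospho-AKT Ser473 by HRP/OPD cell ELISA, absorbance 490 nm. Values given as percentage or fold decrease in AKT phosphorylation relative to stimulated cells.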

PC3 = experiment: Cytotoxicity assay (propidium iodide), PC3; details: Homo sapiens, PC-3, 48 h, read-out: IC50 cytotoxicity
Method: as §1

H460 = experiment: Cytotoxicity assay (propidium iodide), H460; assay type: cell-based; details: Homo sapiens, NCI-H460; H460 (C1b, lung); 48 hours
U 87 MG = experiment: Cytotoxicity assay (propidium iodide), U 87 MG; assay type: cell-based; details: Homo sapiens; U 87 MG (C8b, glioblastoma); 48 hours
Method: as §1

MDA MB 468 = experiment: Cytotoxicity assay (propidium iodide), MDA MB 468; assay type: cell-based; details: Homo sapiens; MDA MB 468 (C6b, breast); 48 hours
Method: as §1

U266B1 = experiment: Cytotoxicity assay (propidium iodide), U266B1; assay type: cell-based; details: U266B1 (C7a, multiple myeloma); 48 hours
Method: as §1

G361 = experiment: Cytotoxicity assay (propidium iodide), G361; assay type: cell-based; details: G-361; G361 (C9a, human melanoma); 48 hours
Method: as §1

MCF7 = experiment: Cytotoxicity assay (propidium iodide), MCF7; assay type: cell-based; details: Homo sapiens; MCF7 (C6c, breast); 48 hours
Method: as §1

BT 549 = experiment: Cytotoxicity assay (propidium iodide), BT 549; assay type: cell-based; details: Homo sapiens; BT 549 (C6d, breast); 48 hours
Method: as §1

MDA MB 231 = experiment: Cytotoxicity assay (propidium iodide), MDA MB 231; assay type: cell-based; details: Homo sapiens; MDA MB 231 (C6a, breast); 48 hours
Method: as §1

Compound | IC50 (CAPAN1) [µM] | IC50 (STAT3) [µM] | IC50 (FaDu) [µM] | IC50 (mTOR) [µM] | inhibition at 1 µM (mTOR) [%] | IC50 (PC3) [µM] | IC50 (H460) [µM] | IC50 (U 87 MG) [µM] | IC50 (MDA MB 468) [µM] | IC50 (U266B1) [µM] | IC50 (G361) [µM] | IC50 (MCF7) [µM] | IC50 (BT 549) [µM] | IC50 (MDA MB 231) [µM]
CN(N=Cc1cnc2ccc(-c3cccnc3)cn12)S(=O)(=O)c1cccc(F)c1 [Example 5, 3-Fluoro-N-methyl-N′-((6-(pyridine-3-yl)imidazo[1,2-a]pyridine-3-yl)methylene)benzenesulfonohydrazide] | 0.01 to 5 | 0.1 to 5 | 0.01 to 5 | 1 to 5 |  |  |  |  |  |  |  |  |  | 
CN(N=Cc1cnc2ccc(-c3cccnc3)cn12)S(=O)(=O)c1ccc(F)cc1 [Example 6, 4-Fluoro-N-methyl-N′-((6-(pyridine-3-yl)imidazo[1,2-a]pyridine-3-yl)methylene)benzenesulfonohydrazide] | 0.01 to 5 | 5 to 10 | 0.01 to 5 |  | 30 to 50 |  |  |  |  |  |  |  |  | 
CN(N=Cc1cnc2ccc(-c3cccnc3)cn12)S(=O)(=O)c1cc(F)cc(F)c1 [Example 16, 3,5-Difluoro-N-methyl-N′-((6-(pyridine-3-yl)imidazo[1,2-a]pyridine-3-yl)methylene) benzenesulfonohydrazide] |  | 5 to 10 |  |  | 30 to 50 |  |  |  |  |  |  |  |  | 
Cc1ccc(F)cc1S(=O)(=O)N(C)N=Cc1cnc2ccc(-c3cccnc3)cn12 [Example 21, 5-Fluoro-N, 2-dimethyl-N′-((6-(pyridine-3-yl)imidazo[1,2-a]pyridine-3-yl)methylene) benzenesulfonohydrazide] | 0.01 to 5 | 5 to 10 |  | 1 to 5 |  | 0.01 to 5 | 0.01 to 5 | 0.01 to 5 | 0.01 to 5 | 0.01 to 5 | 0.01 to 5 | 0.01 to 5 | 0.01 to 5 | 0.01 to 5
Cc1ccc([N+](=O)[O-])cc1S(=O)(=O)N(C)N=Cc1cnc2ccc(-c3cccnc3)cn12 [Example 25] | 0.01 to 5 | 0.1 to 5 |  | 1 to 5 |  | 0.01 to 5 | 0.01 to 5 |  |  |  |  | 0.01 to 5 | 0.01 to 5 | 0.01 to 5
